Results published in US20140134140A1, “MESENCHYMAL STEM CELL COMPOSITIONS FOR THE TREATMENT OF MICROBIAL INFECTIONS” (Case Western Reserve University, priority 2012, published 2014).

Experiments:
CFTR [1] = molecular target: T1, CFTR (Mus musculus, UniProt P26361); test: LL-37 secretion by BMC9 cells with CFTR inhibition; format: cell-based; details: 10 μg/ml, 48 hours; Mean±SEM, n=3
T1 construct: BMC9 cells have 0.36±0.14% Cftr expression; endogenous in cells; host or cells: BMC9 immortal mouse MSC clone
T1 sequence (P26361 whole entry): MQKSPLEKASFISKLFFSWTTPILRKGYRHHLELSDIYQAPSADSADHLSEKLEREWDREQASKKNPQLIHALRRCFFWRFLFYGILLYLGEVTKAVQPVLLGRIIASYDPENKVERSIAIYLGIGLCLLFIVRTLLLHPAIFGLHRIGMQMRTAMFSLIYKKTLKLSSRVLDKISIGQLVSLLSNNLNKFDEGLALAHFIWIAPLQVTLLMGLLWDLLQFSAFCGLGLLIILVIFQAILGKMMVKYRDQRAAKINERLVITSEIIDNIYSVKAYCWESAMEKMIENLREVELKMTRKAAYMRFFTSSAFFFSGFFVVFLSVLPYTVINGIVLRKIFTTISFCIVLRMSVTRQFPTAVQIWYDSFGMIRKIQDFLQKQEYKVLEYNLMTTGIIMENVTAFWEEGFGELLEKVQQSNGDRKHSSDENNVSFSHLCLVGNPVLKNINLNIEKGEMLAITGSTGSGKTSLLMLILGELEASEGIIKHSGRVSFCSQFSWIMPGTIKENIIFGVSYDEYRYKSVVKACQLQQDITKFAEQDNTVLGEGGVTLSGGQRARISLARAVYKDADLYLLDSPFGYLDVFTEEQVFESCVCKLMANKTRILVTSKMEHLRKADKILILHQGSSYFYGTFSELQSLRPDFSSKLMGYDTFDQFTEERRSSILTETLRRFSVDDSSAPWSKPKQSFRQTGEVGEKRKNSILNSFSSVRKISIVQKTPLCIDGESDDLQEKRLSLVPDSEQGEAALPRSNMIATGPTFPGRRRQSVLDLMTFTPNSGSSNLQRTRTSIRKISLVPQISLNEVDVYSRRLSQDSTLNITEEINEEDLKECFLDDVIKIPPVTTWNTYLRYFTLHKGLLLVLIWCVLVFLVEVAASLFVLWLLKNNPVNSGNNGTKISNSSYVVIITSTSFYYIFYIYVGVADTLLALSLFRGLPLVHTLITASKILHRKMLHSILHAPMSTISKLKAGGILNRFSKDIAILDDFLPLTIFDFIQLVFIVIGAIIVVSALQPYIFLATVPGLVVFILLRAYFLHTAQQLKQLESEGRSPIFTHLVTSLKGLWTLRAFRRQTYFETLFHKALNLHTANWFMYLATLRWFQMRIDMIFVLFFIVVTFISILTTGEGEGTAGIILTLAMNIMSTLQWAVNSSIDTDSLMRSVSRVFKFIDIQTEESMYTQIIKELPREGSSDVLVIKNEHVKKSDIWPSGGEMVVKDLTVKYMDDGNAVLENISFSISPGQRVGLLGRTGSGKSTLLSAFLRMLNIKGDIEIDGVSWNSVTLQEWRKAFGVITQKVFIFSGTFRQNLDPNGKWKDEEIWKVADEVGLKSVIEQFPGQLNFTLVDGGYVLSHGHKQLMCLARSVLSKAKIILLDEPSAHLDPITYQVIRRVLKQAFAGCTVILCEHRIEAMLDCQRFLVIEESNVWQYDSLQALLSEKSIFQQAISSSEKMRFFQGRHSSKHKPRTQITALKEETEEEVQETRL
Method: (§1) To determine if CF MSCs express CFTR to validate the I-172 studies, we took advantage of an immortal mouse derived MSC clone BMC9, especially since we have a highly reproducible mouse Cftr gene expression assay in our CF animal CORE center. These cells are abundant and have s a MSC phenotype when grown at 37° C. […] The sensitivity and specificity of our Cftr expression assay is 40±2 Ct. If we had used a lower expressing tissue, the % of Cftr levels would be higher. BMC9 cells cultured with I-172 (10 μg/ml, for 48 hours) secreted 37±13% (Mean±SEM, n=3) less LL-37 than BMC9 cells not cultured with I-172 (P≦0.05). […] Our future studies are aimed at studying the differences between and Cftr deficient MSCs and control MSCs.

CFTR [2] = molecular target: T2, CFTR (Homo sapiens, UniProt P13569); test: LL-37 secretion by cultured hMSCs with or without CFTR inhibition; format: cell-based
T2 construct: endogenous in cells; host or cells: human mesenchymal stem cells (hMSCs) from bone marrow of healthy volunteers
T2 sequence (P13569 whole entry): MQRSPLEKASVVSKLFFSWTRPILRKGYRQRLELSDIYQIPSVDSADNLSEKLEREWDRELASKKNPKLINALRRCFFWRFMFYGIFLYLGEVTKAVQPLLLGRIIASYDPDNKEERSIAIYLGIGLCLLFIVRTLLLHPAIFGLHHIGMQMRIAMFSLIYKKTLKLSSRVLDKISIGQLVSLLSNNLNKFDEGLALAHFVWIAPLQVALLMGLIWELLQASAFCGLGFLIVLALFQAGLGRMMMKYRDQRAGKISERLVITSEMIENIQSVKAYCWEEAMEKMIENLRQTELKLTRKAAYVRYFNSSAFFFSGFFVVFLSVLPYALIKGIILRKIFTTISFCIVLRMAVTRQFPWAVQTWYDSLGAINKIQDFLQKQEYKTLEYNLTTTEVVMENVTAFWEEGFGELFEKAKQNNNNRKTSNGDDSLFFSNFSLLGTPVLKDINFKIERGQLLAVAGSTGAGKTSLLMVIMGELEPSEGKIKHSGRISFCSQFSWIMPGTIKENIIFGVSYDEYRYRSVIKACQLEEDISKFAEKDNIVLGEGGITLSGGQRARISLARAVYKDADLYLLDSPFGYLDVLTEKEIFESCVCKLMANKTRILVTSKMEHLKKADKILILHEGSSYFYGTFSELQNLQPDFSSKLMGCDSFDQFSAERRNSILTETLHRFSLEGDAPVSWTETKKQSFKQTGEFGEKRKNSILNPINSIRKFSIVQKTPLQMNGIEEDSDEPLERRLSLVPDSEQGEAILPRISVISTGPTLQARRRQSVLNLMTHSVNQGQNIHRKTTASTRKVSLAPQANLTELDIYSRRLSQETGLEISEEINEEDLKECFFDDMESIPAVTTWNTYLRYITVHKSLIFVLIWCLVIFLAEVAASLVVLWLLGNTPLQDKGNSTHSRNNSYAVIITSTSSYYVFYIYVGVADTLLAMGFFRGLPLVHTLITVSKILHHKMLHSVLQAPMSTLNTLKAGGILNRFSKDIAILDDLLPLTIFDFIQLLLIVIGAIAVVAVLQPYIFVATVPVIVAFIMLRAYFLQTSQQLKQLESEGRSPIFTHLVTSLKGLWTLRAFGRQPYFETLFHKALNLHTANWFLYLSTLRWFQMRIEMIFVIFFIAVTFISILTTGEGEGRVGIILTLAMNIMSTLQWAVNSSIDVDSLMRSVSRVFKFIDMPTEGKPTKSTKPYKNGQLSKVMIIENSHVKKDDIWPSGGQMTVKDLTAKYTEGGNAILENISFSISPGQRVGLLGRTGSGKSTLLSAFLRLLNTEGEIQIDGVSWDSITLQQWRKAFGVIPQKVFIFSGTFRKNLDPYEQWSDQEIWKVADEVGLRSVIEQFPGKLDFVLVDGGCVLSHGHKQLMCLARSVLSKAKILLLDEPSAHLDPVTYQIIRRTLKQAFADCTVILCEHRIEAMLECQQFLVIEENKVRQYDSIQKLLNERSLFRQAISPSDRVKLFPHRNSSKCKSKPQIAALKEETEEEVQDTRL
Method: FIG. 11 illustrates that hMSCs and BMM cells secrete LL-37. hMSCs utilized in the animal models were cultured in vitro with and without the addition of 0.5 ug/ml LPS (n=5 preparations) with or without inhibition of CFTR with I-172 (10 ug/ml for 48 hours) and incubated for 24 hours. […] We used the student t-test for these analyses.
as §1

## O=C(O)c1ccc(/C=C2\SC(=S)N(c3cccc(C(F)(F)F)c3)C2=O)cc1 [I-172]
CFTR [1]
  less LL-37 secreted than BMC9 cells not cultured with I-172: 37±13%
CFTR [2]; 10 ug/ml for 48 hours then LPS, relative to LPS control
  amount of LL-37 after LPS stimulation: even further suppressed
CFTR [2]; 10 ug/ml for 48 hours, relative to un-stimulated control
  ability of hMSCs to secrete LL-37: significantly reduced
